# Laboratory results published in patent publication US9359297B2, “Spirolactam derivatives and uses of same” (H. Lundbeck A/S, priority 2009, dated 2016).
# Molecular target: T1, human metabotropic glutamate receptor 5 (hmGluR5) (Homo sapiens, UniProt P41594)
# T1 construct: expressed in transfected cells
# Experiment: Calcium mobilization (FLIPR) assay for negative allosteric modulation, EC80 glutamate, hmGluR5 in HEK 293
# Type: cell-based
# Settings: HEK293; hmGluR5, inhibition of EC80 glutamate response; read-out: FLIPR maximum inhibition
# Procedure: The cDNA for rat metabotropic glutamate receptor 5 (rmGluR5) and the cDNA for human metabotropic glutamate receptor 5 (hmGluR5) were generous gifts from S. Nakanishi (Kyoto University, Kyoto, Japan). The rmGluR5 or hmGluR5 was stably expressed in a HEK 293 cell line and grown in Dulbecco's Modified Eagle Medium (DMEM) (Invitrogen, Carlsbad, Calif.) with supplements (10% bovine calf serum, 4 mM glutamine, 100 units/mL penicillin, 100 μg/mL streptomycin and 0.75 mM G1418) at 37° C., 5% CO2. Twenty-four hours prior to assay, cells were seeded into 384-well black wall microtiter plates coated with poly-D-lysine. Just prior to assay, media was aspirated and cells dye-loaded (25 μL/well) with 3 μM Fluo-4/0.01% pluronic acid in assay buffer (Hank's Balanced Saline Solution (HBSS)): 150 mM NaCl, 5 mM KCl, 1 mM CaCl2, 1 mM MgCl2, plus 20 mM N-2-Hydroxyethylpiperazine-N′-2-ethanesulfonic acid (HEPES), pH 7.4, 0.1% bovine serum albumin (BSA) and 2.5 mM probenicid) for 1 hour in 5% CO2 at 37° C. After excess dye was discarded, cells were washed in assay buffer and layered with a final volume equal to 30 μL/well. Basal fluorescence is monitored in a fluorometric imaging plate reader (FLIPR) (Molecular Devices, Sunnyvale, Calif.) with an excitation wavelength of 488 nm and an emission range of 500 to 560 nm. Laser excitation energy was adjusted so that basal fluorescence readings were approximately 10,000 relative fluorescent units. Cells were stimulated with an EC20 or an EC80 concentration of glutamate in the presence of a compound to be tested, both diluted in assay buffer, and relative fluorescent units were measured at defined intervals (exposure=0.6 sec) over a 3 min period at room temperature. Basal readings derived from negative controls were subtracted from all samples. Maximum change in fluorescence was calculated for each well. Concentration-response curves derived from the maximum change in fluorescence were analyzed by nonlinear regression (Hill equation). A negative modulator can be identified from these concentration-response curves if a compound produces a concentration dependent inhibition of the EC80 glutamate response.
# T1 sequence (P41594 21-1212): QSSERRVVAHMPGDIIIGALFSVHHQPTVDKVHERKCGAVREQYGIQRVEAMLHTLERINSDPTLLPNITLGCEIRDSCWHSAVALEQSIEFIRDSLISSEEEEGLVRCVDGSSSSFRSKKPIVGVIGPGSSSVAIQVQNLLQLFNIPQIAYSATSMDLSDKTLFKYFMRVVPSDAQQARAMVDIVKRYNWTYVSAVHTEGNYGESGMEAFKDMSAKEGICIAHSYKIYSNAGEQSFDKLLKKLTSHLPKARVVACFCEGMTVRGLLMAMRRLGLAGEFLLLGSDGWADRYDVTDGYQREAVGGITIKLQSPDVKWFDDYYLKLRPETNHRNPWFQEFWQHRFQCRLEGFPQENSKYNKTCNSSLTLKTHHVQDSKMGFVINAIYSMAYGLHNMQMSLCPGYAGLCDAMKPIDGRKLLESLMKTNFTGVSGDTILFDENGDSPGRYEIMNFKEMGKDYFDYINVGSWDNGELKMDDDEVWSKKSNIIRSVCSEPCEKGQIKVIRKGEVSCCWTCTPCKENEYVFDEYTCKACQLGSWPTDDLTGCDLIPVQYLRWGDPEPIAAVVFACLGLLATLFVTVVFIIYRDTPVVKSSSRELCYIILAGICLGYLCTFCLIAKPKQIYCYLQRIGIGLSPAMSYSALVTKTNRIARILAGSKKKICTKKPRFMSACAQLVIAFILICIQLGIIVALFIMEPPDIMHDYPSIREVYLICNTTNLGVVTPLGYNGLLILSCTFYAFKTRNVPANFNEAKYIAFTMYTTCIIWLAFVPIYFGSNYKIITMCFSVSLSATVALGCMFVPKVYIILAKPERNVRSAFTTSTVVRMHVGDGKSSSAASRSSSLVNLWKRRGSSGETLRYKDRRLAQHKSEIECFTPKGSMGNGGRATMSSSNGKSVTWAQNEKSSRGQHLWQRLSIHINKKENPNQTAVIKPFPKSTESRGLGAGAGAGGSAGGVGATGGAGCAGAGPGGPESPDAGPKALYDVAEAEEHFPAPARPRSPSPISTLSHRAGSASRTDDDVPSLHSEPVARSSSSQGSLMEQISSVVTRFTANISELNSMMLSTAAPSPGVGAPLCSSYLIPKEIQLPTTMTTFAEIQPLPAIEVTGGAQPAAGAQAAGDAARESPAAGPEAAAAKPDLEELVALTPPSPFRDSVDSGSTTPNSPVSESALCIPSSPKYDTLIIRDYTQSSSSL
row,Compound,Emax [%]
1,"Cc1cccc(C(=O)N[C@H]2CCC[C@]3(CCN(c4cc(F)cc(F)c4)C3=O)C2)n1 (single isomer, unassigned) [Example 81]",73 to 95
2,"Cc1cccc(C(=O)N[C@H]2CCC[C@]3(CCN(c4cc(-c5ccc(F)cc5)ncn4)C3=O)C2)n1 (relative stereo) [Example 87, cis-6-Methyl-pyridine-2-carboxylic acid {2-[6-(4-fluoro-phenyl)-pyrimidin-4-yl]-1-oxo-2-aza-spiro [4.5]dec-7-yl}-amide]",73 to 95
3,"Cc1cncc(N2CC[C@]3(CCC[C@H](NC(=O)c4cccc(C)n4)C3)C2=O)c1 (relative stereo) [Example 71, cis-6-Methyl-pyridine-2-carboxylic acid [2-(5-methyl-pyridin-3-yl)-1-oxo-2-aza-spiro[4.5]dec-7-yl]-amide]",73 to 95
4,Cc1cccc(C(=O)N[C@H]2CCC[C@]3(CCN(C)C3=O)C2)n1 (relative stereo) [Example 153],47 to 93
5,"Cc1nccc(C(=O)N[C@H]2CCC[C@]3(CCN(c4cccc(C#N)c4)C3=O)C2)n1 (relative stereo) [Example 60, cis-2-Methyl-pyrimidine-4-carboxylic acid [2-(3-cyano-phenyl)-1-oxo-2-aza-spiro [4.5]dec-7-yl]-amide]",73 to 95
6,"O=C1C[C@@H](NC(=O)c2cccc(F)c2)C[C@]2(CCN(c3cccc(F)c3)C2=O)C1 (relative stereo) [Example 123, cis-3-Fluoro-N-[2-(3-fluoro-phenyl)-1,9-dioxo-2-aza-spiro[4.5]dec-7-yl]-benzamide]",47 to 93
7,"Cc1nccc(C(=O)N[C@@H]2C[C@@H](O)C[C@@]3(CCN(c4cc(F)cc(F)c4)C3=O)C2)n1 (relative stereo) [Example 117, trans-2-Methyl-pyrimidine-4-carboxylic acid [2-(3,5-difluorphenyl)-9-hydroxy-1-oxo-2-aza-spiro[4.5]dec-7-yl]-amide]",47 to 93
8,"O=C(N[C@H]1CCC[C@]2(CCN(c3cc(F)cc(F)c3)C2=O)C1)c1ccncn1 (relative stereo) [Example 79, cis-Pyrimidine-4-carboxylic acid [2-(3,5-difluoro-phenyl)-1-oxo-2-azaspiro[4.5]dec-7-yl]-amide]",73 to 95
9,"O=C(N[C@H]1CCC[C@]2(CCN(c3cc(-c4ccc(F)cc4)ncn3)C2=O)C1)c1cccc(F)c1 (relative stereo) [Example 88, cis-3-Fluoro-N-{2-[6-(4-fluoro-phenyl)-pyrimidin-4-yl]-1-oxo-2-aza-spiro[4.5]dec-7-yl}-benzamide]",73 to 95
10,"O=C(N[C@H]1CCC[C@]2(CCN(c3ccc(F)c(F)c3)C2=O)C1)c1ccccn1 (relative stereo) [Example 75, cis-Pyridine-2-carboxylic acid [2-(3,4-difluoro-phenyl)-1-oxo-2-aza-spiro[4.5]dec-7-yl]-amide]",73 to 95
11,"O=C(N[C@H]1CCC[C@]2(CCN(c3cncc(F)c3)C2=O)C1)c1ccccn1 (relative stereo) [Example 74, cis-Pyridine-2-carboxylic acid [2-(5-fluoro-pyridin-3-yl)-1-oxo-2-aza-spiro[4.5]dec-7-yl]-amide]",73 to 95
12,"Cc1nc(C(=O)N[C@@H]2CCC[C@@]3(CCN(c4cc(F)cc(F)c4)C3=O)C2)cc(=O)[nH]1 [Example 159, 2-Methyl-6-oxo-1,6-dihydro-pyrimidine-4-carboxylic acid [(5R,7R)-2-(3,5-difluoro-phenyl)-1-oxo-2-aza-spiro[4.5]dec-7-yl]amide]",47 to 93
13,"Cc1cncc(N2CC[C@]3(CCC[C@H](NC(=O)c4ccnc(C)n4)C3)C2=O)n1 (relative stereo) [Example 59, cis-2-Methyl-pyrimidine-4-carboxylic acid [2-(6-methyl-pyrazin-2-yl)-1-oxo-2-aza-spiro[4.5]dec-7-yl]-amide]",73 to 95
14,"CN1CCC(N2CCC3(CCCC(NC(=O)c4cccc(F)c4)C3)C2=O)CC1 (stereo not drawn) [Example 157, 3-Fluoro-N-[2-(1-methyl-piperidin-4-yl)-1-oxo-2-aza-spiro[4.5]dec-7-yl]-benzamide]",47 to 93
15,"COc1cc(F)cc(N2CC[C@@]3(CCC[C@@H](NC(=O)c4ccnc(C)n4)C3)C2=O)c1 (relative stereo) [Example 141, cis-2-Methyl-pyrimidine-4-carboxylic acid [2-(3-fluoro-5-methoxy-phenyl)-1-oxo-2-aza-spiro[4.5]dec-7-yl]-amide]",47 to 93

# Second part, the compound after the results:
row,Emax [%],Compound
1,47 to 93,"O=C(N[C@H]1CC(F)(F)C[C@]2(CCN(c3cc(F)cc(F)c3)C2=O)C1)c1ccccn1 (single isomer, unassigned) [Example 113]"
2,47 to 93,"Cc1nccc(C(=O)N[C@@H]2CC(F)(F)C[C@@]3(CCN(c4cccc(F)c4)C3=O)C2)n1 (single isomer, unassigned) [Example 104]"
3,88 to 93,"O=C(N[C@@H]1CC(F)(F)C[C@@]2(CCN(c3cccc(F)c3)C2=O)C1)c1ccccn1 (racemic) [Example 97, cis-Pyridine-2-carboxylic acid [9,9-difluoro-2-(3-fluoro-phenyl)-1-oxo-2-aza-spiro[4.5]dec-7-yl]-amide]"
4,47 to 93,"O=C(N[C@@H]1CC(F)(F)C[C@@]2(CCN(c3cc(F)cc(F)c3)C2=O)C1)c1ccccn1 (single isomer, unassigned) [Example 114]"
5,73 to 95,"Cc1nccc(N2CC[C@]3(CCC[C@H](NC(=O)c4cccc(C(F)(F)F)n4)C3)C2=O)n1 (relative stereo) [Example 96, cis-6-Trifluoromethyl-pyridine-2-carboxylic acid [2-(2-methyl-pyrimidin-4-yl)-1-oxo-2-aza-spiro [4.5]dec-7-yl]-amide]"
6,73 to 95,"Cc1cc(N2CC[C@]3(CCC[C@H](NC(=O)c4cccc(F)c4)C3)C2=O)ccn1 (relative stereo) [Example 66, cis-3-Fluoro-N-[2-(2-methyl-pyridin-4-yl)-1-oxo-2-aza-spiro[4.5]dec-7-yl]-benzamide]"
7,47 to 93,"O=C(N[C@H]1CC(F)(F)C[C@@]2(CCN(c3cccc(F)c3)C2=O)C1)c1ccccn1 (single isomer, unassigned) [Example 101]"
8,47 to 93,Cc1nccc(N2CC[C@]3(CCC[C@H](NC(=O)c4nccs4)C3)C2=O)n1 (relative stereo) [Example 140]
9,47 to 93,"Cc1cccc(C(=O)N[C@@H]2CC(F)(F)C[C@@]3(CCN(c4ccc(F)cn4)C3=O)C2)n1 (racemic) [Example 109, cis-6-Methyl-pyridine-2-carboxylic acid [9,9-difluoro-2-(5-fluoro-pyridin-2-yl)-1-oxo-2-aza-spiro[4.5]dec-7-yl]-amide]"
10,47 to 93,"O=C(N[C@@H]1CC(F)(F)C[C@@]2(CCN(c3ccc(F)cn3)C2=O)C1)c1ccccn1 (relative stereo) [Example 111, cis-Pyridine-2-carboxylic acid [9,9-difluoro-2-(5-fluoro-pyridin-2-yl)-1-oxo-2-aza-spiro[4.5]dec-7-yl]-amide]"
11,47 to 93,"Cc1nccc(N2CC[C@]3(C[C@H](NC(=O)c4cccc(F)c4)CC(F)(F)C3)C2=O)n1 (single isomer, unassigned) [Example 121]"
12,73 to 95,"Cc1nccc(N2CC[C@]3(CCC[C@H](NC(=O)c4ccccc4F)C3)C2=O)n1 (relative stereo) [Example 91, cis-2-Fluoro-N-[2-(2-methyl-pyrimidin-4-yl)-1-oxo-2-aza-spiro [4.5]dec-7-yl]-benzamide]"
13,73 to 95,"Cc1nccc(N2CC[C@]3(CCC[C@H](NC(=O)c4cccc(F)c4)C3)C2=O)n1 (relative stereo) [Example 65, cis-3-Fluoro-N-[2-(2-methyl-pyrimidin-4-yl)-1-oxo-2-aza-spiro[4.5]dec-7-yl]-benzamide]"
14,47 to 93,"Cc1nccc(C(=O)N[C@H]2CC(F)(F)C[C@]3(CCN(c4cccc(F)c4)C3=O)C2)n1 (single isomer, unassigned) [Example 103]"
15,47 to 93,"Cc1nccc(N2CC[C@@]3(C[C@@H](NC(=O)c4cccc(F)c4)CC(F)(F)C3)C2=O)n1 (single isomer, unassigned) [Example 120]"
16,47 to 93,Cc1nccc(N2CC[C@]3(CCC[C@H](NC(=O)c4ccc(F)cn4)C3)C2=O)n1 (relative stereo) [Example 149]
17,88 to 93,"O=C(N[C@H]1CC(F)(F)C[C@]2(CCN(c3cccc(F)c3)C2=O)C1)c1ccccn1 (single isomer, unassigned) [Example 99]"
18,73 to 95,"Cc1cc(C(=O)N[C@H]2CCC[C@]3(CCN(c4ccnc(C)n4)C3=O)C2)ccn1 (relative stereo) [Example 92, cis-2-Methyl-N-[2-(2-methyl-pyrimidin-4-yl)-1-oxo-2-aza-spiro [4.5]dec-7-yl]-isonicotinamide]"
